From PubChem BioAssay (NCI)
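These data come from cells grown in 96-well plates and exposed to compound for 48 hours at five concentrations. GI50 = concentration required for 50% inhibition of growth. The concentration for full growth arrest is given as TGI.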

Columns and labels:
Assay in all cases: NCI tumour cell line growth inhibition, 48 h
[1] = tested on: NCI/ADR-RES ovarian
[2] = tested on: P388 leukemia
[3] = tested on: K-562 leukemia
[4] = tested on: SF-268 CNS
[5] = tested on: KM20L2 colon
[6] = tested on: CCRF-CEM leukemia
[7] = tested on: SN12K1 renal
[8] = tested on: HL-60(TB) leukemia
[9] = tested on: P388/ADR leukemia
[10] = tested on: XF 498 CNS
[11] = tested on: MCF7 breast
[12] = tested on: NCI-H522 lung
[13] = tested on: A498 renal
[14] = tested on: MALME-3M melanoma
[15] = tested on: HCC-2998 colon
[16] = tested on: M14 melanoma

Structure (SMILES) | TGI [1] [µM] | TGI [2] [µM] | TGI [3] [µM] | TGI [4] [µM] | TGI [5] [µM] | TGI [6] [µM] | TGI [7] [µM] | TGI [8] [µM] | TGI [9] [µM] | TGI [10] [µM] | TGI [11] [µM] | TGI [12] [µM] | TGI [13] [µM] | TGI [14] [µM] | TGI [15] [µM] | GI50 [14] [µM] | GI50 [15] [µM] | GI50 [16] [µM] | TGI [16] [µM]
Oc1c(Br)cc2c(c1Br)-c1c(c(O)c3c4c1=NCCC=4C=N3)NCC2 | 34.3 | > 22.2 | 40.9 | 23.2 | 18.7 | 9.49 | 17.4 | 16.9 | 43.2 | 27.2 | 22.2 | 5.52 | 45.7 |  |  |  |  |  | 
Brc1ccc2[nH]c3c(C4=NCCC4)nccc3c2c1 | > 100 | > 21.7 | > 41.9 | > 70.4 | 23.3 | > 30.1 | > 25.7 | 18.6 | > 23.8 | > 72.2 | > 47.6 | > 100 | > 49.2 | 16.1 | 39.1 |  |  |  | 
N#C[S-].[La+3].c1ccc(-c2ccccn2)nc1.c1ccc(-c2ccccn2)nc1.c1ccc(-c2ccccn2)nc1 |  |  |  |  |  |  |  |  |  |  |  |  |  | 60.9 | > 100 | 23.3 | 17.4 | 12.1 | 27.9
